Reference: ChEMBL document CHEMBL4130462, “Natural isoflavone biochanin A as a template for the design of new and potent 3-phenylquinolone efflux inhibitors against Mycobacterium avium” (Eur J Med Chem, 2017)
≈ marks a conversion by molar mass, not a printed value.

Legend:
[1] = system: Mycolicibacterium smegmatis; experiment: Antimycobacterial activity against Mycobacterium smegmatis str. MC2 155 assessed as reduction in bacterial viability incubated for 3 days by MTT assay; format: organism-based; settings: 72 h
Mycobacterium avium [2] = settings: in vivo, 72 h
Description: Antimycobacterial activity against Mycobacterium avium 104 mc'2 3 assessed as reduction in bacterial viability incubated for 3 days by MTT assay

Mycobacterium avium [3] = settings: in vivo, 72 h; remark: listed apart in the source
Description: Antimycobacterial activity against Mycobacterium avium 104 mc'2 4 assessed as reduction in bacterial viability incubated for 3 days by MTT assay

Mycobacterium avium [4] = settings: 72 h
Description: Antimycobacterial activity against Mycobacterium avium 104 assessed as reduction in bacterial viability incubated for 3 days by MTT assay

[5] = system: Mycolicibacterium smegmatis MC2 155; experiment: Inhibition of multidrug resistance efflux pump in Mycobacterium smegmatis str. MC2 155 assessed as increase in EtBr accumulation by measuring relative final fluorescence at <= 1/2 times MIC incubated for 60 mins by real-time fluorometry relative to control
Mycobacterium avium [6] = experiment: Antimycobacterial activity against Mycobacterium avium isolate MAV3 assessed as reduction in bacterial viability incubated for 3 days by MTT assay; format: organism-based; settings: 72 h
Mycobacterium avium [7] = experiment: Antimycobacterial activity against Mycobacterium avium isolate MAV2 assessed as reduction in bacterial viability incubated for 3 days by MTT assay; format: organism-based; settings: 72 h
Mycobacterium avium [8] = experiment: Antimycobacterial activity against Mycobacterium avium isolate MAV1 assessed as reduction in bacterial viability incubated for 3 days by MTT assay; format: organism-based; settings: in vitro, 72 h
Mycobacterium avium [9] = experiment: Antimycobacterial activity against Mycobacterium avium ATCC 25291 assessed as reduction in bacterial viability incubated for 3 days by MTT assay; format: organism-based; settings: mycobacterium avium subsp. avium atcc 25291, 72 h
Mycobacterium avium [10] = experiment: Antimycobacterial activity against Mycobacterium avium isolate MAV4 assessed as reduction in bacterial viability incubated for 3 days by MTT assay; format: organism-based; settings: 72 h
[11] = Cytotoxicity in human monocyte-derived macrophages assessed as reduction in cell viability incubated for 3 days by alamar blue dye based assay; parameters: species or system Macrophage cell line; settings: for CC50 at 72 h: human monocyte-derived macrophages; for MTC: macrophage cell line, 72 h
Mycobacterium avium [12] = experiment: Inhibition of multidrug resistance efflux pump in Mycobacterium avium 104 assessed as increase in EtBr accumulation by measuring relative final fluorescence at 1/4 times MIC incubated for 60 mins by real-time fluorometry relative to control
Mycobacterium avium [13] = experiment: Inhibition of multidrug resistance efflux pump in Mycobacterium avium 104 mc'2 4 assessed as increase in EtBr accumulation by measuring relative final fluorescence at 1/4 times MIC incubated for 60 mins by real-time fluorometry relative to control
Mycobacterium avium [14] = experiment: Inhibition of multidrug resistance efflux pump in Mycobacterium avium 104 mc'2 3 assessed as increase in EtBr accumulation by measuring relative final fluorescence at 1/4 times MIC incubated for 60 mins by real-time fluorometry relative to control

Row | SMILES | MIC [1] | MIC (Mycobacterium avium [2]) | MIC (Mycobacterium avium [3]) | MIC (Mycobacterium avium [4]) | Ratio [5] | MIC (Mycobacterium avium [6]) [µg/mL] | MIC (Mycobacterium avium [7]) [µg/mL] | MIC (Mycobacterium avium [8]) [µg/mL] | MIC (Mycobacterium avium [9]) [µg/mL] | MIC (Mycobacterium avium [10]) [µg/mL] | CC50 at 72 h [11] [µM] | MTC [11] [µM] | Ratio (Mycobacterium avium [12]) | Ratio (Mycobacterium avium [13]) | Ratio (Mycobacterium avium [14])
1 | CCCOc1ccc(-c2c[nH]c3ccccc3c2=O)cc1 | Nd(Insoluble) | Nd(Insoluble) | Nd(Insoluble) | Nd(Insoluble) |  |  |  |  |  |  |  |  |  |  | 
2 | CCCOc1ccc(-c2cn(CCN3CCNCC3)c3ccccc3c2=O)cc1 | > 256 µg/mL | > 256 µg/mL | > 256 µg/mL | > 256 µg/mL | 1.42 |  |  |  |  |  |  |  |  |  | 
3 | O=C(O)c1cn(C2CC2)c2cc(N3CCNCC3)c(F)cc2c1=O [CIPROFLOXACIN] |  | 16 µg/mL (≈ 48.3 µM) | 16 µg/mL (≈ 48.3 µM) | 16 µg/mL (≈ 48.3 µM) |  | 32 (≈ 96.6 µM) | 8 (≈ 24.1 µM) | 2 (≈ 6.04 µM) | 32 (≈ 96.6 µM) | 32 (≈ 96.6 µM) |  |  |  |  | 
4 | COc1ccc(CCN(C)CCCC(C#N)(c2ccc(OC)c(OC)c2)C(C)C)cc1OC (stereo not given) | 800 µg/mL (≈ 1760 µM) | 800 µg/mL (≈ 1760 µM) | 800 µg/mL (≈ 1760 µM) | 800 µg/mL (≈ 1760 µM) |  | 800 (≈ 1760 µM) | 400 (≈ 880 µM) | 400 (≈ 880 µM) | 800 (≈ 1760 µM) | 800 (≈ 1760 µM) | 117 | 10 |  |  | 
5 | CCCOc1ccc(-c2cn(CCN3CCN(Cc4ccccc4)CC3)c3ccccc3c2=O)cc1 | 64 µg/mL (≈ 133 µM) | 256 µg/mL (≈ 532 µM) | 256 µg/mL (≈ 532 µM) | 256 µg/mL (≈ 532 µM) |  |  |  |  |  |  |  |  | 3.19 | 1.96 | 2.93
6 | CCCOc1ccc(-c2cn(C)c3ccccc3c2=O)cc1 | 256 µg/mL (≈ 873 µM) |  |  |  |  |  |  |  |  |  |  |  |  |  | 
7 | COc1ccc(-c2coc3cc(O)cc(O)c3c2=O)cc1 [BIOCHANIN] | > 64 µg/mL | > 64 µg/mL | > 64 µg/mL | > 64 µg/mL | 0.63 |  |  |  |  |  | 50.4 | 20 |  |  | 
8 | CC[C@H]1OC(=O)[C@H](C)[C@@H](O[C@H]2C[C@@](C)(OC)[C@@H](O)[C@H](C)O2)[C@H](C)[C@@H](O[C@@H]2O[C@H](C)C[C@H](N(C)C)[C@H]2O)[C@](C)(O)C[C@@H](C)C(=O)[C@H](C)[C@@H](O)[C@]1(C)O [ERYTHROMYCIN] |  | > 512 µg/mL | > 512 µg/mL |  |  | 512 (≈ 698 µM) | > 512 |  |  | 512 (≈ 698 µM) |  |  |  |  | 
9 | CC1COc2c(N3CCN(C)CC3)c(F)cc3c(=O)c(C(=O)O)cn1c23 (stereo not given) [OFLOXACIN] |  | 16 µg/mL (≈ 44.3 µM) | 16 µg/mL (≈ 44.3 µM) | 16 µg/mL (≈ 44.3 µM) |  | 16 (≈ 44.3 µM) | 4 (≈ 11.1 µM) | 4 (≈ 11.1 µM) | 64 (≈ 177 µM) | 16 (≈ 44.3 µM) |  |  |  |  | 
10 | CC[n+]1c(-c2ccccc2)c2cc(N)ccc2c2ccc(N)cc21.[Br-] [HOMIDIUM BROMIDE] |  | 25 µg/mL | 25 µg/mL | 25 µg/mL |  | 12.5 | 12.5 | 25 | 50 | 50 |  |  |  |  | 
11 | CC[C@H]1OC(=O)[C@H](C)[C@@H](O[C@H]2C[C@@](C)(OC)[C@@H](O)[C@H](C)O2)[C@H](C)[C@@H](O[C@@H]2O[C@H](C)C[C@H](N(C)C)[C@H]2O)[C@](C)(O)C[C@@H](C)CN(C)[C@H](C)[C@@H](O)[C@]1(C)O [AZITHROMYCIN] |  | > 512 µg/mL | > 512 µg/mL | > 512 µg/mL |  | 256 (≈ 342 µM) | > 512 | 256 (≈ 342 µM) | 64 (≈ 85.4 µM) | 256 (≈ 342 µM) |  |  |  |  | 
12 | CC[C@H]1OC(=O)[C@H](C)[C@@H](O[C@H]2C[C@@](C)(OC)[C@@H](O)[C@H](C)O2)[C@H](C)[C@@H](O[C@@H]2O[C@H](C)C[C@H](N(C)C)[C@H]2O)[C@](C)(OC)C[C@@H](C)C(=O)[C@H](C)[C@@H](O)[C@]1(C)O [CLARITHROMYCIN] |  | > 512 µg/mL | > 512 µg/mL | 8 µg/mL (≈ 10.7 µM) |  | 16 (≈ 21.4 µM) | > 1024 | 4 (≈ 5.35 µM) | 8 (≈ 10.7 µM) | 8 (≈ 10.7 µM) |  |  |  |  | 
13 | CCCOc1ccc(-c2cn(CCCN(C)C)c3ccccc3c2=O)cc1 | > 256 µg/mL | > 256 µg/mL | > 256 µg/mL | > 256 µg/mL | 1.38 |  |  |  |  |  |  |  |  |  | 
